In patent US20070173532A1, “New Piperidine Antibiotics” (Actelion Pharmaceuticals Ltd., priority 2004, published 2007):
Converted amounts (≈) assume the structure as drawn.

Tests used:
Type in all cases: cell-based
E. faecium A949 = assay: MIC by microdilution (NCCLS) against E. faecium A949; conditions: pH 7.2-7.3; for MIC: Enterococcus faecium, A949, cation-adjusted Mueller-Hinton Broth
Protocol: (§1) These assays have been performed following the description given in “Methods for dilution Antimicrobial Susceptibility Tests for Bacteria that Grow Aerobically, 4th ed.; Approved standard: NCCLS Document M7-A4; National Committee for Clinical Laboratory Standards: Villanova, Pa., USA, 1997”. Minimal inhibitory concentrations (MICs; mg/l) were determined in cation-adjusted Mueller-Hinton Broth (BBL) by a microdilution method following NCCLS guidelines (National Committee for Clinical Laboratory Standards. Methods for Dilution Antimicrobial Susceptibility). The pH of the test medium was 7.2-7.3. All Examples were tested against several Gram positive and Gram negative bacteria.

S. aureus 29213 = assay: MIC by microdilution (NCCLS) against S. aureus 29213; conditions: pH 7.2-7.3; for MIC: Staphylococcus aureus, 29213, cation-adjusted Mueller-Hinton Broth
Protocol: as §1

S. aureus A798 = assay: MIC by microdilution (NCCLS) against S. aureus A798; conditions: pH 7.2-7.3; for MIC: Staphylococcus aureus, A798, cation-adjusted Mueller-Hinton Broth
Protocol: as §1

S. pneumoniae 49619 = assay: MIC by microdilution (NCCLS) against S. pneumoniae 49619; conditions: for MIC: Streptococcus pneumoniae, 49619, cation-adjusted Mueller-Hinton Broth, pH 7.2-7.3, read-out: MIC S. Pneunoniae 49619
Protocol: as §1

S. Pneunoniae A70 = assay: MIC by microdilution (NCCLS) against S. Pneunoniae A70; conditions: cation-adjusted Mueller-Hinton Broth, pH 7.2-7.3
Protocol: as §1

E. faecalis 29212 = assay: MIC by microdilution (NCCLS) against E. faecalis 29212; conditions: pH 7.2-7.3; for MIC: Enterococcus faecalis, 29212, cation-adjusted Mueller-Hinton Broth
Protocol: as §1

[1] = cation-adjusted Mueller-Hinton Broth

| Compound | MIC (E. faecium A949) | MIC (S. aureus 29213) | MIC (S. aureus A798) | MIC (S. pneumoniae 49619) | MIC (S. Pneunoniae A70) | MIC (E. faecalis 29212) | MIC E. faecium A949 (E. faecium A949; [1]) | MIC S. aureus 29213 (S. aureus 29213; [1]) | MIC S. aureus A798 (S. aureus A798; [1]) | MIC S. Pneunoniae 49619 (S. pneumoniae 49619; cation-adjusted Mueller-Hinton Broth, pH 7.2-7.3) | MIC S. Pneunoniae A70 (S. Pneunoniae A70) | MIC E. faecalis 29212 (E. faecalis 29212; [1]) |
| --- | --- | --- | --- | --- | --- | --- | --- | --- | --- | --- | --- | --- |
| COc1cnc2cccc(OCC[C@@H]3CCN(CCSc4cccs4)C[C@@H]3CCC(=O)O)c2c1 [Example 1, 3-{(3R,4S)-4-[2-(3-methoxy-quinolin-5-yloxy)-ethyl]-1-[2-(thiophen-2-ylsulfanyl)-ethyl]-piperidin-3-yl}-propionic acid] | 1 mg/L (≈ 2 µM) | 0.5 mg/L (≈ 0.999 µM) | 0.25 mg/L (≈ 0.499 µM) | 0.5 mg/L (≈ 0.999 µM) | 1 mg/L (≈ 2 µM) | 8 mg/L (≈ 16 µM) | – | – | – | – | – | – |
| COc1cnc2cccc(C(O)CC[C@@H]3CCN(C/C=C/c4ccccc4)C[C@@H]3C(=O)O)c2c1 (mixture of isomers) [Example 10, (3R,4R)-4-[(3RS)-3-hydroxy-3-(3-methoxy-quinolin-5-yl)-propyl]-1-trans-(3-phenyl-allyl)-piperidine-3-carboxylic acid] | – | – | – | – | – | – | 4 mg/L (≈ 8.68 µM) | 0.5 mg/L (≈ 1.09 µM) | 0.25 mg/L (≈ 0.543 µM) | 1 mg/L (≈ 2.17 µM) | 4 mg/L (≈ 8.68 µM) | 4 mg/L (≈ 8.68 µM) |
| COc1cnc2cccc(OCC[C@@H]3CCN(CCSc4cccs4)C[C@@H]3CCCO)c2c1 [Example 2, 3-{(3R,4S)4-[2-(3-methoxy-quinolin-5-yloxy)-ethyl]-1-[2-(thiophen-2-ylsulfanyl)-ethyl]-piperidin-3-yl}-propan-1-ol] | 2 mg/L (≈ 4.11 µM) | 1 mg/L (≈ 2.05 µM) | 0.25 mg/L (≈ 0.514 µM) | 0.5 mg/L (≈ 1.03 µM) | 1 mg/L (≈ 2.05 µM) | 2 mg/L (≈ 4.11 µM) | – | – | – | – | – | – |
